Data published in patent publication US7666897B2, “Analogs of indole-3-carbinol metabolites as chemotherapeutic and chemopreventive agents” (SRI International, priority 2002, dated 2010).
Where two headings read alike, the source gives them in different places.

Legend:
[1] = system: Tamoxifen-resistant MCF-7; assay: Growth inhibition assay (tetrazolium blue), tamoxifen-resistant MCF-7 cells; format: cell-based
Description: (§1) Growth inhibition assays were conducted using DIM, LT, and some of the novel compounds of the invention on several breast cancer cell lines. The cell lines studied were MCF-7 (ER^+), MDA-MB-231 (ER^−), and a tamoxifen-resistant strain of MCF-7 (ER^+). The growth assays were conducted according to the method of Tiwari et al. (Tiwari, R. K., J Natl Cancer Inst 86:126-131, 1994). For growth Inhibition Assay, cells were grown in multi-well culture plates. Experiments were performed in quadruplicate. MCF-7 (ER^+) cells were grown in special medium containing 5% animal serum that had been treated to remove endogenous estrogens. After the plates were incubated at 37° C. for 24 hours, to each well was added test compound at various concentrations, with or without the estrogen 17β-estradiol (E2). The cells were then incubated for 7 days, with medium and test solutions replaced every other day. On Day 8, after the medium was removed and replaced with fresh medium without test solutions, the tetrazolium blue test was performed to determine the percentage of viable cells (viable cells convert the colorless tetrazolium to formazan, which is blue). At 4 hours after tetrazolium blue was added, the reaction was stopped and the formazan concentration was measured by detection of light absorbance at 575 nm in an enzyme linked immunosorbent assay (ELISA) plate reader. The percent growth inhibition was determined by dividing the ELISA results for samples containing test compounds by the results for control samples. […] (ER^−) cells were maintained and tested under the same conditions as described above, except that no estrogen was added.

MCF-7 (ER+) = assay: Growth inhibition assay (tetrazolium blue), MCF-7 (ER+) breast cancer cells; format: cell-based; details: for inhibition at 1 µM: MCF7; for IC50: 7 days incubation, tetrazolium blue
Description: as §1

MDA-MB-231 (ER−) = assay: Growth inhibition assay (tetrazolium blue), MDA-MB-231 (ER−) breast cancer cells; format: cell-based, human; details: for IC50: no estrogen added
Description: as §1

[2] = system: Ishikawa cells (endometrial carcinoma cells); assay: Ishikawa assay (alkaline phosphatase induction), estrogenic and antiestrogenic activity; format: cell-based, human; details: AlkP induction, 72 hours; for Ishikawa Assay Anti-Estrogenic Activity at 10 μM: unit assumed
Description: Estrogenic and antiestrogenic activities were determined using the Ishikawa assay (Littlefield, B. A., Endocrinology 127: 2757-2762, 1990). The activities were measured at 10 μM concentrations of the test compounds. Human Ishikawa cells (endometrial carcinoma cells) are very sensitive to estrogens, and compounds with estrogenic activity induce alkaline phosphatase (AlkP) enzyme activity in these cells when administered at levels as low as 10^−12 M. Ishikawa cells were grown in growth medium supplemented with glutamine, sodium pyruvate, and 10% animal serum. At 24 hours before the experiment, the medium was replaced with medium free of phenol red and containing 5% animal serum that had been treated to remove endogenous estrogens. On Day 1, the cells were harvested and plated in fresh phenol red-free medium, and test solutions were added with or without the estrogen 17β-estradiol. After the treated cells were incubated for 72 hours, the AlkP assay was used to determine the estrogenic and antiestrogenic activity of the test compounds. Like the tetrazolium blue assay described above, this assay involves calorimetric detection using an ELISA plate reader, but here the indicator dye is yellow.

DU-145 = assay: Growth inhibition assay (MTT), DU-145 prostate cancer cells; format: cell-based; details: Day 7, MTT
Description: (§2) Assays were conducted on compound 46 (SR13654) to determine its growth inhibitory effect on three prostate cancer cell lines, LNCaP, DU-145 and PC-3. The methods were described briefly herein. LNCaP and PC-3 cells will be maintained in […] medium, and DU-145 cells in Eaglets minimal essential medium (MEM) medium supplemented with nonessential amino acids, 2 mM glutamine and 1 mM pyruvate. All media will contain 10% fetal bovine serum (FCS). To screen compounds for their effect on cell proliferation, cells are seeded in 96-well plates at 2000 cells/well in 200 μL of medium. After cells are allowed to attach for 24 h, test compound is added to each well in 10 μL aliquots and control wells receive vehicle only. Medium and test solutions are replaced every other day. On Day 7, viable cells are measured with the MTT assay, using the protocol provided by the manufacturer (Promega, Madison, Wis.).

PC-3 = assay: Growth inhibition assay (MTT), PC-3 prostate cancer cells; format: cell-based; details: Day 7, MTT
Description: as §2

LNCaP = assay: Growth inhibition assay (MTT), LNCaP prostate cancer cells; format: cell-based; details: Day 7, MTT
Description: as §2

NIH-OVCAR-3 = assay: Growth inhibition assay (MTT), NIH-OVCAR-3 ovarian cancer cells; format: cell-based; details: Homo sapiens, OVCAR-3, 168 h; Day 7, MTT
Description: (§3) Assays were conducted on compound 74 (SR13668) to determine its growth inhibitory effect on two ovarian cancer cell lines, NIH-OVCAR-3 and SKOV-3. OVCAR-3 cells are routinely maintained in RPMI-1640 medium supplemented with 2 mM glutamine (GLN) and 10% fetal calf serum (FCS), and SKOV-3 cells in McCoy's 5A medium supplemented with 2 mM GLN and 10% FCS. Both cell lines are fed with fresh medium every other day and passaged every 6-7 days. To conduct the growth inhibition assay, cells from either cell line are seeded in 96-well plates at 2000 cells/well in 200 μL of medium. After cells are allowed to attach for 24 h, test compounds dissolved in dimethyl sulfoxide (DMSO) and further diluted with medium are added to each well in 10-μL aliquots. The final DMSO concentration is kept at 0.05%. Control wells receive vehicle only. Media and test solutions are replaced every other day. On Day 7, viable cells are measured with the MTT (tetrazolium blue) assay, using an MTT kit.

[3] = system: MDA-MB-231 human breast cancer xenografts; assay: (ER−) MDA-MB-231 breast cancer xenografts in nude mice; format: in vivo, female Balb/c nude mice; details: 10, 30, and 100 mg/kg daily oral gavage, MDA-MB-231 xenograft
Description: As a further test of in vivo efficacy against estrogen-independent breast cancer, the novel compound 74 was administered to nude mice that had been implanted with (ER^−) MDA-MB-231 human breast cancer xenografts. To start, female Balb/c nude mice were implanted subcutaneously (s.c.) with MDA-MB-231 cells, using an inoculum of 5×10^6 cells in a medium-Matrigel mixture (1:1, v/v). When the mean tumor volume reached approximately 70 mm^3, compound was administered daily at three dose levels (10, 30, and 100 mg/kg) via oral gavage. The methods used in the study were essentially the similar to those described in Example 29 herein.

SKOV-3 = assay: Growth inhibition assay (MTT), SKOV-3 ovarian cancer cells; format: cell-based; details: Homo sapiens, SK-OV-3, 168 h; Day 7, MTT
Description: as §3

[4] = system: MDA-MB-231 human carcinoma cells; assay: Parallel cell growth inhibition assay to the invasion study; format: cell-based; details: 16 h end-point
[5] = system: MCF-7 breast cancer xenografts; assay: ER+ MCF-7 breast cancer xenografts in nude mice; format: in vivo, female Balb/c nude mice; details: oral gavage daily, MCF-7 xenograft
Description: To study the in vivo activity of novel compound 74 against estrogen-dependent breast cancer, the compound was administered to nude mice that had been implanted with […] MCF-7 breast cancer cells. To start the experiment, female Balb/c nude mice were implanted subcutaneously (s.c.) with estrogen pellets two days prior to inoculation of cancer cells, for stimulation of cell growth. MCF-7 cells were then implanted s.c. in the flanks, using an inoculum of 5×10^6 cells in a medium-Matrigel mixture (1:1, v/v). When the mean tumor volume reached approximately 100 mm^3, the test compound in 0.5% hydroxypropylcellulose in sterile saline solution (or vehicle alone for controls) was administered orally by gavage daily. There were 7 mice in the experimental and control groups. Mice were examined daily for tumor growth, and tumors and body weight were measured twice weekly. The tumor volume is 4/3πr1^2r2, where r1 and r2 are the short radius and long radius, respectively. On Day 27, all the mice were sacrificed, and the major organs examined by a pathologist.

[6] = system: SKOV-3 human ovarian cancer xenografts; assay: SKOV-3 human ovarian cancer xenografts in nude mice; format: in vivo, female Balb/c nude mice; details: 30 mg/kg orally daily from Day 0, SKOV-3 xenograft
Description: To start, female Balb/c nude mice were implanted subcutaneously (s.c.) with SKOV-3 cells in the flanks, using an inoculum of 5×10^6 cells in a medium-Matrigel mixture (1:1, v/v), and compound 74 (30 mg/kg) was orally administered daily via gavage from Day 0. Tumor volume and body weight were measured twice weekly.

[7] = system: MDA-MB-231 human carcinoma cells; assay: Boyden Chamber Invasion Assay; format: cell-based; details: 5 μM, 16 h end-point
Description: MDA-MB-231 human carcinoma cells was used for this Boyden Chamber Invasion Assay (Meng et al. (2000) J. Mol. Med. 78, 155-165; Meng et al. (2000) Breast Cancer Res. Treat. 63, 147-152). Briefly, to each well of a 24-well Biocoat invasion chamber plate, 0.6 mL of appropriate medium containing 10% FCSH 6 μg/ml Fibronectin is added, followed by gentle placement of a CCI in each well. To each CCI is added freshly harvested cells suspended in 200 μL of medium containing either the test compound or vehicle alone. The preparations are incubated at 37° C. for 16 h, and then the CCI is removed from each well, fixed for 10 min with 1 ml of 3.7% paraformaldehyde in PBS, and stained for 10 min in 1 mL of Wright-Giemsa stain solution. The stained CCI is placed on a glass microscope slide and the upper surface cells are carefully removed by scraping with a cotton swab. The cells on the lower surface are counted in a bright field microscope. The inhibitory effect of a test compound is calculated by dividing the number of cells in a treated preparation by that of the vehicle control and expressed as a percentage.

Compound	IC50 ([1]; Tamoxifen-resistant MCF7) [nM]	inhibition at 1 µM (MCF-7 (ER+); Homo sapiens) [%]	IC50 (MCF-7 (ER+); Homo sapiens, MCF7, 168 h) [nM]	inhibition at 10 µM (MDA-MB-231 (ER−); Homo sapiens, MDA-MB-231) [%]	IC50 (MDA-MB-231 (ER−); Homo sapiens, MDA-MB-231) [nM]	Ishikawa Assay Estrogenic Activity at 10 μM [2]	Ishikawa Assay Anti-Estrogenic Activity at 10 μM [2] [%]	IC50 [1] [nM]	MCF-7 (ER+) % Growth Inhibition at 1 μM (MCF-7 (ER+)) [%]	IC50 (MCF-7 (ER+)) [nM]	MDA-MB-231 (ER−) % Growth Inhibition at 10 μM (MDA-MB-231 (ER−)) [%]	IC50 (MDA-MB-231 (ER−)) [nM]	also measured
CCOC(=O)Oc1c2[nH]c3ccccc3c2cc2c1[nH]c1ccccc12 [Compound 58, 6-Ethoxycarbonyloxy-5,7-dihydro-indolo[2,3-b]carbazole]	56	100	18	97	2100	0	100						
c1ccc2c(Cc3c[nH]c4ccccc34)c[nH]c2c1 [DIM, 3,3′-diindolylmethane, reference compound]								> 10000	3	5500	20	31000	
CCOC(=O)Oc1c2[nH]c3ccc(C(=O)OCC)cc3c2cc2c1[nH]c1ccc(C(=O)OCC)cc12 [Compound 63, 2,10-Dicarbethoxy-6-ethoxycarbonyloxy-5,7-dihydro-indolo[2,3-b]carbazole]	3000	66	1400	94	2000	0	100						
CCOC(=O)c1ccc2[nH]c(Cc3[nH]c4ccc(C(=O)OCC)cc4c3C)c(C)c2c1 [Compound 46, 5,5′-Dicarbethoxy-3,3′-dimethyl-2,2′-diindolylmethane]						0	94	460	100	31	81	6900	IC50 (DU-145): 480 nM; IC50 (PC-3): 200 nM; IC50 (LNCaP): 4700 nM
CCOC(=O)c1ccc2[nH]c3c(OC)c4[nH]c5ccc(C(=O)OCC)cc5c4cc3c2c1 [Compound 74, 2,10-Dicarbethoxy-6-methoxy-5,7-dihydro-indolo[2,3-b]carbazole]	930	100	200	69	7800	0	80						IC50 (NIH-OVCAR-3): 5100 nM; body weights of the treated mice [3]: unaffected; tumor volume versus control mice ([3]; FIG. 2): less than half of those in the control mice; IC50 (SKOV-3): 4000 nM; inhibition at 5 µM [4]: 22%; body weights of the treated mice [5]: unaffected; tumor volume versus control mice ([5]; FIG. 1): less than half of those in the control mice; body weights of the treated mice [6]: unaffected; tumor volume versus control mice ([6]; FIG. 3): significantly less than those in the control mice; reduction in the invasive capacity of MDA-MB-231 cells [7]: 90%
c1ccc2c(Cc3[nH]c4ccccc4c3Cc3c[nH]c4ccccc34)c[nH]c2c1 [LT, 2-(indol-3-ylmethyl) 3,3′-diindolyl-methane, reference compound]						0	100	600	19	1800	34	13000	
